Biological target: Type-2 angiotensin II receptor (Sus scrofa)
Test: Displacement of [125I]-Ang II from angiotensin II receptor type 2 in pig uterus myometrium

Row | Ki [nM] | SMILES
1 | 9.3 | CC(C)[C@H](NC(=O)[C@H](C)NC(=O)[C@@H](N)CC(=O)O)C(=O)Nc1cccc2c1N[C@@H](Cc1ccc(O)cc1)C(=O)N(CC(=O)N[C@@H](Cc1cnc[nH]1)C(=O)N1CCC[C@H]1C(=O)N[C@@H](Cc1ccccc1)C(=O)O)C2 [(3S)-3-amino-3-{[(1S)-1-{[(1S)-1-{[(2S)-4-({[(2S)-1-[(2S)-2-{[(1S)-1-carboxy-2-phenylethyl]carbamoyl}pyrrolidin-1-yl]-3-(1H-imidazol-4-yl)-1-oxopropan-2-yl]carbamoyl}methyl)-2-[(4-hydroxyphenyl)methyl]-3-oxo-2,3,4,5-tetrahydro-1H-1,4-benzodiazepin-9-yl]carbamoyl}-2-methylpropyl]carbamoyl}ethyl]carbamoyl}propanoic acid]
2 | 0.8 | CC(C)[C@H](NC(=O)[C@H](CCCNC(=N)N)NC(=O)[C@@H](N)CC(=O)O)C(=O)Nc1cccc2c1N[C@@H](Cc1ccc(O)cc1)C(=O)N(CC(=O)N[C@@H](Cc1cnc[nH]1)C(=O)N1CCC[C@H]1C(=O)N[C@@H](Cc1ccccc1)C(=O)O)C2 [(3S)-3-amino-3-{[(1S)-1-{[(1S)-1-{[(2S)-4-({[(2S)-1-[(2S)-2-{[(1S)-1-carboxy-2-phenylethyl]carbamoyl}pyrrolidin-1-yl]-3-(1H-imidazol-4-yl)-1-oxopropan-2-yl]carbamoyl}methyl)-2-[(4-hydroxyphenyl)methyl]-3-oxo-2,3,4,5-tetrahydro-1H-1,4-benzodiazepin-9-yl]carbamoyl}-2-methylpropyl]carbamoyl}-4-[(diaminomethylidene)amino]butyl]carbamoyl}propanoic acid]
3 | 2.8 | N=C(N)NCCC[C@H](NC(=O)[C@@H](N)CC(=O)O)C(=O)Nc1cccc2c1N[C@@H](Cc1ccc(O)cc1)C(=O)N(CC(=O)N[C@@H](Cc1cnc[nH]1)C(=O)N1CCC[C@H]1C(=O)N[C@@H](Cc1ccccc1)C(=O)O)C2 [(3S)-3-amino-3-{[(1S)-1-{[(2S)-4-({[(2S)-1-[(2S)-2-{[(1S)-1-carboxy-2-phenylethyl]carbamoyl}pyrrolidin-1-yl]-3-(1H-imidazol-4-yl)-1-oxopropan-2-yl]carbamoyl}methyl)-2-[(4-hydroxyphenyl)methyl]-3-oxo-2,3,4,5-tetrahydro-1H-1,4-benzodiazepin-9-yl]carbamoyl}-4-[(diaminomethylidene)amino]butyl]carbamoyl}propanoic acid]

From BindingDB's records for doi:10.1021/jm0491492 (Uppsala University, 2005)
